Data published in US20240254115A1 (ACONDICIONAMIENTO TARRASENSE, priority 2021, published 2024).

What was measured:
human σ1 receptor = target: T1, human σ1 receptor (Homo sapiens, UniProt Q99720); test: Human σ1 receptor radioligand assay; settings: transfected HEK-293 membranes, 5 nM [3H](+)-pentazocine, 37° C. 120 minutes; + may also stand for 1-50% inhibition at 1 or 10 μM; read-out: Binding σ-1 Ki
T1 construct: expressed in transfected cells; host or cells: HEK-293
Outline: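 Membranes (7 μg) were incubated with 5 nM [3H](+)-pentazocine in 50 mM Tris-HCl pH 8 for 120 min at 37° C. Non-specific binding was defined with 10 μM haloperidol. Values are % inhibition at 1 or 10 μM or Ki from five concentrations, read by filtration and scintillation counting.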

human σ2/TMEM97 receptor = target: T2, human σ2/TMEM97 receptor (Homo sapiens, UniProt Q5BJF2); test: Binding assay to human σ2/TMEM97 receptor; settings: transfected HEK-293 membranes, 10 nM [3H]-DTG, 25° C. 120 minutes; + may also stand for 1-50% inhibition at 1 or 10 μM; read-out: Binding σ-2 Ki
T2 construct: expressed in transfected cells; host or cells: HEK-293
Outline: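 Membranes from transfected HEK-293 cells (15 µg) were incubated with 10 nM [3H]-DTG in 50 mM Tris-HCl pH 8.0 for 120 min at 25 °C, with 10 µM haloperidol defining non-specific binding. Filtration and scintillation counting followed. Compounds tested as % inhibition at 1 or 10 µM, or at five concentrations for Ki.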

T2 sequence (Q5BJF2 whole entry): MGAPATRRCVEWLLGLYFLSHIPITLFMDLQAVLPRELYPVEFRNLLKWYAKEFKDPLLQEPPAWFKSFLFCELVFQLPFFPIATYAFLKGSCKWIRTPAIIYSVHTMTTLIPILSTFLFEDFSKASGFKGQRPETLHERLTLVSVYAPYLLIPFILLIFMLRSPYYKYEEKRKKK
T1 sequence (Q99720 whole entry): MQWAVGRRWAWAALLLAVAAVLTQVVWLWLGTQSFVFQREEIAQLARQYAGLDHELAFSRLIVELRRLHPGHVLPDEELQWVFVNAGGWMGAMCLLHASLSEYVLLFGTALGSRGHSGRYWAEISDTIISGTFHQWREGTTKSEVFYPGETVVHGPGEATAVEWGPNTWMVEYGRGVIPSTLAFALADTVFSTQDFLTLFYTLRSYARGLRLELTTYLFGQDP

SMILES	Ki (human σ1 receptor)	Ki (human σ2/TMEM97 receptor)
CN(Cc1ccccc1)C1CCN(S(=O)(=O)c2ccc(N3CCC4(CCCO4)CC3)nc2)CC1 [Example 87, 1-((6-(1-Oxa-8-azaspiro[4.5]decan-8-yl)pyridin-3-yl)sulfonyl)-N-benzyl-N-methylpiperidin-4-amine]	> 1000 nM	< 100 nM
CN(CCC(C)(C)C)[C@H]1CC[C@H](NS(=O)(=O)c2ccc(N3CCOCC3)nc2)CC1 [Example 89, N-((1r,4r)-4-((3,3-Dimethylbutyl)(methyl)amino)cyclo-hexyl)-6-morpholinopyridine-3-sulfonamide]	500 to 1000 nM	< 100 nM
CC(C)OCCN1CCC2(CC1)CCN(S(=O)(=O)c1ccc(C(F)(F)F)nc1)CC2 [Example 90, 3-(2-Isopropoxyethyl)-9-((6-(trifluoromethyl)pyridin-3-yl)sulfonyl)-3,9-diazaspiro[5.5]undecane]	100 to 500 nM	< 100 nM
CC(C)CN1CCC2(CC1)CCN(S(=O)(=O)c1ccc(C(F)(F)F)nc1)CC2 [Example 91, 3-Isobutyl-9-((6-(trifluoromethyl)pyridin-3-yl)sulfonyl)-3,9-diazaspiro[5.5]undecane]	500 to 1000 nM	< 100 nM
CNc1ccc(S(=O)(=O)N2CCCC3(CCN(CCC(C)(C)C)CC3)C2)cn1 [Example 94, 5-((9-(3,3-Dimethylbutyl)-2,9-diazaspiro[5.5]undecan-2-yl)sulfonyl)-N-methylpyridin-2-amine]	100 to 500 nM	< 100 nM
CC(C)(C)CN1CCC2(CC1)CCN(S(=O)(=O)c1ccc(N3CCC(F)(F)CC3)nc1)CC2 [Example 99, 3-((6-(4,4-Difluoropiperidin-1-yl)pyridin-3-yl)sulfonyl)-9-neopentyl-3,9-diazaspiro[5.5]undecane]	100 to 500 nM	< 100 nM
CC(=O)N(C)c1ccc(S(=O)(=O)N2CCCC3(CCN(CCC(C)(C)C)CC3)C2)cn1 [Example 102, N-(5-((9-(3,3-Dimethylbutyl)-2,9-diazaspiro[5.5]undecan-2-yl)sulfonyl)pyridin-2-yl)-N-methylacetamide]	100 to 500 nM	< 100 nM
CC(=O)N(C)c1ccc(S(=O)(=O)N2CCC3(CCN(CCC(C)(C)C)CC3)CC2)cn1 [Example 103, N-(5-((9-(3,3-Dimethylbutyl)-3,9-diazaspiro[5.5]undecan-3-yl)sulfonyl)pyridin-2-yl)-N-methylacetamide]	100 to 500 nM	< 100 nM
CCC(=O)N(C)c1ccc(S(=O)(=O)N2CCCC3(CCN(CCC(C)(C)C)CC3)C2)cn1 [Example 104, N-(5-((9-(3,3-Dimethylbutyl)-2,9-diazaspiro[5.5]undecan-2-yl)sulfonyl)pyridin-2-yl)-N-methylpropionamide]	100 to 500 nM	< 100 nM
CCC(=O)N(C)c1ccc(S(=O)(=O)N2CCC3(CCN(CCC(C)(C)C)CC3)CC2)cn1 [Example 105, N-(5-((9-(3,3-Dimethylbutyl)-3,9-diazaspiro[5.5]undecan-3-yl)sulfonyl)pyridin-2-yl)-N-methylpropionamide]	100 to 500 nM	< 100 nM
CC(=O)Nc1ccc(S(=O)(=O)N2CCCC3(CCN(CCC(C)(C)C)CC3)C2)cn1 [Example 107, N-(5-((9-(3,3-Dimethylbutyl)-2,9-diazaspiro[5.5]undecan-2-yl)sulfonyl)pyridin-2-yl)acetamide]	100 to 500 nM	< 100 nM
CCc1ccc(S(=O)(=O)N2CCC3(CCN(CCC(C)(C)C)CC3)CC2)cn1 [Example 109, 3-(3,3-Dimethylbutyl)-9-((6-ethylpyridin-3-yl)sulfonyl)-3,9-diazaspiro[5.5]undecane]	< 100 nM	< 100 nM
Cc1ccc(S(=O)(=O)N2CCC3(CCN(CCC(C)(C)C)CC3)CC2)cn1 [Example 110, 3-(3,3-Dimethylbutyl)-9-((6-methylpyridin-3-yl)sulfonyl)-3,9-diazaspiro[5.5]undecane]	< 100 nM	< 100 nM
CCc1ccc(S(=O)(=O)N2CCCC3(CCN(CCC(C)(C)C)CC3)C2)cn1 [Example 111, 9-(3,3-Dimethylbutyl)-2-((6-ethylpyridin-3-yl)sulfonyl)-2,9-diazaspiro[5.5]undecane]	< 100 nM	< 100 nM
CC(C)(C)CCN1CCC2(CCCN(S(=O)(=O)c3ccc(-c4ccncc4)nc3)C2)CC1 [Example 112, 2-([2,4′-Bipyridin]-5-ylsulfonyl)-9-(3,3-dimethylbutyl)-2,9-diazaspiro[5.5]undecane]	< 100 nM	< 100 nM
CC(C)(C)CCN1CCC2(CC1)CCN(S(=O)(=O)c1ccc(-c3ccncc3)nc1)CC2 [Example 113, 3-([2,4′-Bipyridin]-5-ylsulfonyl)-9-(3,3-dimethylbutyl)-3,9-diazaspiro[5.5]undecane]	100 to 500 nM	< 100 nM
CC(C)(C)CCN1CCC2(CC1)CCN(S(=O)(=O)c1ccc(-c3ccncc3)nc1)C2 [Example 114, 2-([2,4′-Bipyridin]-5-ylsulfonyl)-8-(3,3-dimethylbutyl)-2,8-diazaspiro[4.5]decane]	< 100 nM	< 100 nM
CC(C)(C)CCN1CCCC2(CCN(S(=O)(=O)c3ccc(-c4ccncc4)nc3)CC2)C1 [Example 115, 9-([2,4′-Bipyridin]-5-ylsulfonyl)-2-(3,3-dimethylbutyl)-2,9-diazaspiro[5.5]undecane]	< 100 nM	< 100 nM
CC(C)(C)CCN1CCC2(CCCN(S(=O)(=O)c3ccc(C4CCOCC4)nc3)C2)CC1 [Example 116, 9-(3,3-Dimethylbutyl)-2-((6-(tetrahydro-2H-pyran-4-yl)pyridin-3-yl)sulfonyl)-2,9-diazaspiro[5.5]undecane]	< 100 nM	< 100 nM
CC(C)(C)CCN1CCC2(CC1)CCN(S(=O)(=O)c1ccc(C3CCOCC3)nc1)CC2 [Example 117, 3-(3,3-Dimethylbutyl)-9-((6-(tetrahydro-2H-pyran-4-yl)pyridin-3-yl)sulfonyl)-3,9-diazaspiro[5.5]undecane]	100 to 500 nM	< 100 nM

The remaining lines, values ahead:

Ki (human σ1 receptor)	Ki (human σ2/TMEM97 receptor)	SMILES
< 100 nM	< 100 nM	CC(C)(C)CCN1CCC2(CCCN(S(=O)(=O)c3ccc(N4CCOCC4)nc3)C2)CC1 [Example 88, 4-(5-((9-(3,3-Dimethylbutyl)-2,9-diazaspiro[5.5]undecan-2-yl)sulfonyl)pyridin-2-yl)morpholine]
< 100 nM	< 100 nM	CC(C)(C)CCN1CCC2(CCCN(S(=O)(=O)c3ccc(C(F)(F)F)nc3)C2)CC1 [Example 92, 9-(3,3-Dimethylbutyl)-2-((6-(trifluoromethyl)pyridin-3-yl)sulfonyl)-2,9-diazaspiro[5.5]undecane]
< 100 nM	< 100 nM	CC(C)CCN1CCC2(CC1)CCN(S(=O)(=O)c1ccc(C(F)(F)F)nc1)CC2 [Example 93, 3-Isopentyl-9-((6-(trifluoromethyl)pyridin-3-yl)sulfonyl)-3,9-diazaspiro[5.5]undecane]
< 100 nM	< 100 nM	CC(C)(C)CCN1CCC2(CCCN(S(=O)(=O)c3ccc(N4CCC5(CCOC5)CC4)nc3)C2)CC1 [Example 95, 8-(5-((9-(3,3-Dimethylbutyl)-2,9-diazaspiro[5.5]undecan-2-yl)sulfonyl)pyridin-2-yl)-2-oxa-8-azaspiro[4.5]decane]
< 100 nM	< 100 nM	CC(C)(C)CCN1CCC2(CCCN(S(=O)(=O)c3ccc(N4CCC(F)(F)CC4)nc3)C2)CC1 [Example 96, 2-((6-(4,4-Difluoropiperidin-1-yl)pyridin-3-yl)sulfonyl)-9-(3,3-dimethylbutyl)-2,9-diazaspiro[5.5]undecane]
< 100 nM	< 100 nM	CN(C)c1ccc(S(=O)(=O)N2CCCC3(CCN(CCC(C)(C)C)CC3)C2)cn1 [Example 97, 5-((9-(3,3-Dimethylbutyl)-2,9-diazaspiro[5.5]undecan-2-yl)sulfonyl)-N,N-dimethylpyridin-2-amine]
< 100 nM	< 100 nM	CC(C)(C)CCN1CCC2(CCCN(S(=O)(=O)c3ccc(N4CCC5(CCCO5)CC4)nc3)C2)CC1 [Example 98, 8-(5-((9-(3,3-Dimethylbutyl)-2,9-diazaspiro[5.5]undecan-2-yl)sulfonyl)pyridin-2-yl)-1-oxa-8-azaspiro[4.5]decane]
< 100 nM	< 100 nM	CN(CC(C)(C)C)C1CCN(S(=O)(=O)c2ccc(N3CCC(F)(F)CC3)nc2)CC1 [Example 100, 1-((6-(4,4-Difluoropiperidin-1-yl)pyridin-3-yl)sulfonyl)-N-methyl-N-neopentylpiperidin-4-amine]
< 100 nM	< 100 nM	O=S(=O)(c1ccc(N2CCC(F)(F)CC2)nc1)N1CCCC2(CCN(CC3CCOCC3)CC2)C1 [Example 101, 2-((6-(4,4-Difluoropiperidin-1-yl)pyridin-3-yl)sulfonyl)-9-((tetrahydro-2H-pyran-4-yl)methyl)-2,9-diazaspiro[5.5]undecane]
< 100 nM	< 100 nM	CCC(=O)Nc1ccc(S(=O)(=O)N2CCCC3(CCN(CCC(C)(C)C)CC3)C2)cn1 [Example 106, N-(5-((9-(3,3-Dimethylbutyl)-2,9-diazaspiro[5.5]undecan-2-yl)sulfonyl)pyridin-2-yl)propionamide]
< 100 nM	< 100 nM	Cc1ccc(S(=O)(=O)N2CCCC3(CCN(CCC(C)(C)C)CC3)C2)cn1 [Example 108, 9-(3,3-Dimethylbutyl)-2-((6-methylpyridin-3-yl)sulfonyl)-2,9-diazaspiro[5.5]undecane]
